{"source": "patent US20140357688A1", "about": "“METHOD FOR INHIBITING EZH2 EXPRESSION IN BREAST CANCER CELLS” (Yung Shin Pharm. Ind. Co., Ltd., priority 2013, published 2014)", "assay_type_in_all_cases": "cell-based, human", "key": {"MDA-MB-468 cells": {"tested_on": "MDA-MB-468 cells", "test": "Colony formation (clonogenic) assay", "method": "(A) Cells were treated with indicated concentration of YC-1 for 6, 24, and 48 h. Cell viability was determined by MTT method. (B) MDA-MB-468 cells were treated with 3 μM YC-1 for 0, 6, and 12 h, and then stained with fluorescence diacetate (FDA) and propidium iodide (PI). Cell morphology was assessed by fluorescence microscopy with magnification ×20 (upper 3 rows) or ×40 (lowest row). (C) MDA-MB-468 cells were treated with 3 μM YC-1 for 24 h, cells were lysed and subjected to western blot analysis described in Materials and Methods. β-actin is a loading control. Blots were representative of results from three independent experiments. (D) Cells were treated with vehicle (DMSO, as control) or 3 μM YC-1 for 6 h. The cell cycles were analyzed by flow cytometry. (E) Cells were treated with indicated concentration of YC-1 and then performed with clonogenic assay.\nAfter exposure to YC-1, cells were collected and washed extensively with PBS. Five hundred cells per well was seeded onto 6-well plates and maintained in a 37° C., 5% CO2 incubator. Three weeks later, colonies were fixed with formaldehyde (3.7%, v/v) and stained with crystal violet (0.5%, w/v), then counted."}, "EZH2 mRNA": {"tested_on": "EZH2 mRNA", "test": "Quantitative real-time RT-PCR of EZH2 mRNA", "conditions": "3 μM YC-1, 3 or 6 h; less inhibition than protein levels", "method": "Cells were treated with 3 μM YC-1 for 3 or 6 h. Cells were collected for the detection of EZH2 mRNA expression with quantitative real-time RT-PCR described in Materials and Methods.\nTotal RNA was isolated from MDA-MB-468 cells treated with YC-1 and extracted using TRIzol® Reagent (Invitrogen). cDNA strain was reverse transcribed by oligo dT(15) using M-MLV reverse transcriptase (Invitrogen) according to the manufacturer's instructions. Quantitative real-time RT-PCR analysis was performed by a LightCycler® 480 II RTPCR system (Roche Applied Sciences, Manheim, Germany) using Fast Start DNA Master Plus SYBR Green I kit (Roche Applied Sciences). PCR primers were as follows: human EZH2 (NM_004456.4) 5′-[…]-3′ (Forward), 5′-[…]-3′ (Reverse); human GAPDH (NM_002046.3) 5′-[…]-3′ (Forward); 5′-[…]-3′ (Reverse). The expression level of EZH2 mRNA was normalized against the level of GAPDH mRNA in the same sample."}, "Src, Raf-1, and MEK": {"tested_on": "Src, Raf-1, and MEK", "test": "Western blot of Src, Raf-1 and MEK activation", "conditions": "3 μM YC-1", "method": "(A) Cells were pretreated with DMSO (as control), Bay-43-9006 (Bay, 10 μM), farnyesyl thiosalicylic acid (FTS, 10 μM), Src inhibitor I (SrcI, 10 μM), and genistein (Gen, 10 μM), then followed by YC-1 (3 μM) incubation for 6 h. Cells were harvested and lysed for western blot analysis (left, right) and cell viability (middle). The levels of protein expression were quantitated and shown under blots. (B) MDA-MB-468 cells were transfected with shRNA of Raf-1 or Src. After stimulation of 3 μM YC-1 for 4 h, cell protein was subjected to western blot analysis. (C) Cells were incubated with 3 μM YC-1 for indicated time and then lysed for detection of Src, Raf-1, and MEK activation by using specific anti-phosphorylated antibodies. (D) Cells were treated with 3 μM YC-1 for indicated time. Cells were lysed and detected Ras activation by using Raf-RBD conjugated agarose to pull-down Ras-GTP. The total Ras in cell lysate was also detected. […] Cells were lysed and protein expression was determined by western blot analysis. […]\nCells were lysed in PBS containing proteinase inhibitor and phosphatase inhibitors and sonication. Protein concentration was measured using the Bio-Rad protein assay kit (Bio-Rad Laboratories, Hercules, Calif., USA). […] The band intensities were analyzed and quantified by the Multi Gauge software (Fuji Photo Film)."}, "Ras": {"tested_on": "Ras", "test": "Ras activation (Raf-RBD pull-down)", "conditions": "3 μM YC-1", "method": "(A) Cells were pretreated with DMSO (as control), Bay-43-9006 (Bay, 10 μM), farnyesyl thiosalicylic acid (FTS, 10 μM), Src inhibitor I (SrcI, 10 μM), and genistein (Gen, 10 μM), then followed by YC-1 (3 μM) incubation for 6 h. Cells were harvested and lysed for western blot analysis (left, right) and cell viability (middle). The levels of protein expression were quantitated and shown under blots. (B) MDA-MB-468 cells were transfected with shRNA of Raf-1 or Src. After stimulation of 3 μM YC-1 for 4 h, cell protein was subjected to western blot analysis. (C) Cells were incubated with 3 μM YC-1 for indicated time and then lysed for detection of Src, Raf-1, and MEK activation by using specific anti-phosphorylated antibodies. (D) Cells were treated with 3 μM YC-1 for indicated time. Cells were lysed and detected Ras activation by using Raf-RBD conjugated agarose to pull-down Ras-GTP. The total Ras in cell lysate was also detected. […] Cells were lysed and protein expression was determined by western blot analysis. (F) Cells were induced by 3 μM YC-1 in the presence of indicated inhibitors. Cells were lysed and subjected to EZH2 ubiquitination assay.\nRas-GTP has a high affinity with Ras binding domain of Raf-1 (Raf-RBD). Accordingly, GST fusion protein containing Raf-RBD was applied to detect Ras activation. […]"}, "EZH2-c-Cbl-ERK": {"tested_on": "EZH2-c-Cbl-ERK", "test": "Co-immunoprecipitation of c-Cbl and EZH2", "conditions": "3 μM YC-1 with MG-132; after 1 h, maximum at 2 h", "method": "(A) c-Cbl knockdown MDA-MB-468 cells were treated with 3 μM YC-1 for 4 h. Cell were harvested for detection of protein expression. (B) Cells were treated with 3 μM YC-1 for indicated time. Cells were collected and c-Cbl phosphorylation was detected. (C) Cells were pretreated with MG-132 (3 μM) or NH4Cl (30 μM) for 1 h followed by 3 μM YC-1 induction for 6 h. (D) Cells were pretreated with MG-132 and followed by 3 μM YC-1 induction for indicated time. Cells were harvested and lysed for immunoprecipitation assay. The association between c-Cbl and EZH2 were determined by western blotting analysis and probed with anti-EZH2 or anti-c-Cbl antibody. Membranes were stripped and reprobed with anti-c-Cbl or anti-EZH2 antibody to check the input. (E) Cells were preincubated with or without PD98059 (10 μM) in the presence of MG-132 for 1 h prior to 2 h-treatment of 3 μM YC-1. Then cells were collected and lysate protein was subjected for the detection of the c-Cbl-EZH2 complexes.\nCells were lysed with RIPA buffer (50 mM Tris-C1, pH 7.5, 1% Igepal CA-630, 150 mM NaCl, 1 mM EDTA, 1 mM Na3VO4, 1 mM NaF, 1 mM PMSF, 10 μg/ml of leupeptin, aprotinin, and pepstatin A) for 30 min at 4° C. One milligram of cell lysate was incubated with anti-EZH2 or anti-c-Cbl antibody and protein A-Sepharose beads, then gently rotated at 4° C. overnight. […]"}}}
{"compound": "OCc1ccc(-c2nn(Cc3ccccc3)c3ccccc23)o1", "note": "[YC-1, 3-(5′-hydroxymethyl-2′-furyl)-1-benzyl indazole]", "values": [{"measurement": "clonogenic activity", "setting": "MDA-MB-468 cells", "result": "potent ability in attenuation of tumor formation"}, {"measurement": "mRNA expression of EZH2", "setting": "EZH2 mRNA", "result": "inhibitory effect"}, {"measurement": "phosphorylated activation of Src, Raf-1, and MEK", "setting": "Src, Raf-1, and MEK", "result": "time-dependent phosphorylated activation"}, {"measurement": "Ras activation", "setting": "Ras", "result": "could not induce Ras activation"}, {"measurement": "complex formation of EZH2-c-Cbl-ERK", "setting": "EZH2-c-Cbl-ERK", "result": "induced the complex formation"}]}
